Results taken from ChEMBL document CHEMBL5291721, “A preclinical secondary pharmacology resource illuminates target-adverse drug reaction associations of marketed drugs” (Nat Commun, 2023).

Columns and labels:
[1] = target: T1, Corticotropin-releasing factor receptor 1 (Homo sapiens, UniProt P34998)
T1 sequence (P34998 whole entry): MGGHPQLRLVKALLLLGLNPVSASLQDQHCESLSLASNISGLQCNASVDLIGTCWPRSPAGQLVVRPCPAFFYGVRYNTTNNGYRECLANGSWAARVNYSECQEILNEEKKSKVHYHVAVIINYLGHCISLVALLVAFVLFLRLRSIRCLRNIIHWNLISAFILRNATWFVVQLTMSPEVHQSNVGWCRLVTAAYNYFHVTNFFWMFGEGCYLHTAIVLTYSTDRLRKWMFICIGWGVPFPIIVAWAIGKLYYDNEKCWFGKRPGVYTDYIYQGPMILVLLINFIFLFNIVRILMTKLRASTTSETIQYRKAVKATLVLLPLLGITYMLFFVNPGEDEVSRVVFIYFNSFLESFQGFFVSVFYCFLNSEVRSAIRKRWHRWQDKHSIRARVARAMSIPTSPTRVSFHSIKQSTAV

Progesterone receptor = target: T2, Progesterone receptor (Homo sapiens, UniProt P06401)
T2 sequence (P06401 whole entry): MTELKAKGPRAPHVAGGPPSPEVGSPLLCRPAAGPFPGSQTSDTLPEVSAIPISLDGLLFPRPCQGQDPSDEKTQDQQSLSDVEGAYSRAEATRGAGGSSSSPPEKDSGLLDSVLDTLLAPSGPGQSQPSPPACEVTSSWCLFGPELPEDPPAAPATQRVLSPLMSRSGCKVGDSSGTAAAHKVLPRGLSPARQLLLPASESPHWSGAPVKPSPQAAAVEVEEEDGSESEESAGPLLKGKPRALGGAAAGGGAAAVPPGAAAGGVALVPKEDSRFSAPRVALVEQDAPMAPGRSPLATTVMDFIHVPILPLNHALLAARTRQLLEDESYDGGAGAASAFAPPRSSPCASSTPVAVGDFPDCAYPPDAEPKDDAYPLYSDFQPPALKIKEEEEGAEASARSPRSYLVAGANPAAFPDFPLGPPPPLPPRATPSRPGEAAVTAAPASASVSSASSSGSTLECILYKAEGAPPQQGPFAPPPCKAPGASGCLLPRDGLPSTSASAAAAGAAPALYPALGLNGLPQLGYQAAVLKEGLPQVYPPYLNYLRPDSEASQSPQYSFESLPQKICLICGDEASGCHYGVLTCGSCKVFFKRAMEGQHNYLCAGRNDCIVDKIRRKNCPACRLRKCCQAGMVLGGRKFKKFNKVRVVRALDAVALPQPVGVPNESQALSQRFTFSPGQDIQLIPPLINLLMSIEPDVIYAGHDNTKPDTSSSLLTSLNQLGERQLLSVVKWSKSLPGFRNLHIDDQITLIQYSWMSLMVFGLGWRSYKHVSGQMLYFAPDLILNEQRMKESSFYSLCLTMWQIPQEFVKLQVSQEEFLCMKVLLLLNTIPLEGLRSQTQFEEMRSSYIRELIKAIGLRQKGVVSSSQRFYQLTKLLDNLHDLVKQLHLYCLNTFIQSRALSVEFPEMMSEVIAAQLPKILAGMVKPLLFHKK

B1 bradykinin receptor = target: T3, B1 bradykinin receptor (Homo sapiens, UniProt P46663)
T3 sequence (P46663 whole entry): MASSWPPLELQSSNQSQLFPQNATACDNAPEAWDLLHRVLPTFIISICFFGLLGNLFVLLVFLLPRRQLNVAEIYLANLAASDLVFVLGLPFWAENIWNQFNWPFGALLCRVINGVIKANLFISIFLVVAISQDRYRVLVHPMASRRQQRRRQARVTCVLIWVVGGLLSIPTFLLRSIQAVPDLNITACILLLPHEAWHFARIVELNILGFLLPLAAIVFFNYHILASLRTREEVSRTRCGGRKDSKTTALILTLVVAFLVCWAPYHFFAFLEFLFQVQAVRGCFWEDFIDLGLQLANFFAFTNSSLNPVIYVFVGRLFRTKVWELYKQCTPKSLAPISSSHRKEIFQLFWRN

[2] = target: Gamma-aminobutyric acid type B receptor subunit 1 (Homo sapiens, UniProt Q9UBS5)
Androgen receptor [3] = target: T4, Androgen receptor (Rattus norvegicus, UniProt P15207)
T4 sequence (P15207 whole entry): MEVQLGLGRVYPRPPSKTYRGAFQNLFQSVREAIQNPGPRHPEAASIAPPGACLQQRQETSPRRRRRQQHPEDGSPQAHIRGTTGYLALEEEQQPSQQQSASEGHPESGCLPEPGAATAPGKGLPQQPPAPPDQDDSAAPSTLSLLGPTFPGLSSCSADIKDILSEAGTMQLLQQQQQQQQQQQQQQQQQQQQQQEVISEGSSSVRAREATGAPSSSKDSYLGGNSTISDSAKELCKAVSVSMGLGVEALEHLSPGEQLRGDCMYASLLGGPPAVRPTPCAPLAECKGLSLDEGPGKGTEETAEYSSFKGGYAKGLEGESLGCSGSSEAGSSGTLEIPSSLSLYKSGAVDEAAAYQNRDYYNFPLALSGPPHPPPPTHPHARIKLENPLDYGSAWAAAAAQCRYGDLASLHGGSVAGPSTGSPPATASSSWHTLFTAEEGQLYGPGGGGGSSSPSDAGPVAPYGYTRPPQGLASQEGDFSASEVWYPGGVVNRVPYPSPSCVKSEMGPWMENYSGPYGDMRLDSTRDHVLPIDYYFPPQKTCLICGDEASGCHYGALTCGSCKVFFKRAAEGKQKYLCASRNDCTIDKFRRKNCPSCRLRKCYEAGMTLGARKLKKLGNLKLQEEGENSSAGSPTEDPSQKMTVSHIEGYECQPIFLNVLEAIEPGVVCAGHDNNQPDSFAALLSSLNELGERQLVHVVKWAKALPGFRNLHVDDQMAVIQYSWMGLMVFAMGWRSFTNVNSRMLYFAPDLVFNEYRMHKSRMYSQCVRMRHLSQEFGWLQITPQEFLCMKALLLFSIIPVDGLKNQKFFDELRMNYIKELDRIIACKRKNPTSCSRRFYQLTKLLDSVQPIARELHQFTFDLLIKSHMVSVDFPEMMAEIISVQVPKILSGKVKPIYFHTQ

Androgen receptor [4] = target: T4, Androgen receptor; type: functional
Androgen receptor [5] = target: T4, Androgen receptor; type: functional; remark: listed apart in the source
[6] = target: Gamma-aminobutyric acid receptor subunit alpha-1/alpha-2/beta-2/gamma-2 (Homo sapiens, UniProt P14867+P18507+P47869+P47870); type: functional, cell-based
Note: assay procedure not described here.

Sequence of Gamma-aminobutyric acid type B receptor subunit 1 (Q9UBS5 whole entry): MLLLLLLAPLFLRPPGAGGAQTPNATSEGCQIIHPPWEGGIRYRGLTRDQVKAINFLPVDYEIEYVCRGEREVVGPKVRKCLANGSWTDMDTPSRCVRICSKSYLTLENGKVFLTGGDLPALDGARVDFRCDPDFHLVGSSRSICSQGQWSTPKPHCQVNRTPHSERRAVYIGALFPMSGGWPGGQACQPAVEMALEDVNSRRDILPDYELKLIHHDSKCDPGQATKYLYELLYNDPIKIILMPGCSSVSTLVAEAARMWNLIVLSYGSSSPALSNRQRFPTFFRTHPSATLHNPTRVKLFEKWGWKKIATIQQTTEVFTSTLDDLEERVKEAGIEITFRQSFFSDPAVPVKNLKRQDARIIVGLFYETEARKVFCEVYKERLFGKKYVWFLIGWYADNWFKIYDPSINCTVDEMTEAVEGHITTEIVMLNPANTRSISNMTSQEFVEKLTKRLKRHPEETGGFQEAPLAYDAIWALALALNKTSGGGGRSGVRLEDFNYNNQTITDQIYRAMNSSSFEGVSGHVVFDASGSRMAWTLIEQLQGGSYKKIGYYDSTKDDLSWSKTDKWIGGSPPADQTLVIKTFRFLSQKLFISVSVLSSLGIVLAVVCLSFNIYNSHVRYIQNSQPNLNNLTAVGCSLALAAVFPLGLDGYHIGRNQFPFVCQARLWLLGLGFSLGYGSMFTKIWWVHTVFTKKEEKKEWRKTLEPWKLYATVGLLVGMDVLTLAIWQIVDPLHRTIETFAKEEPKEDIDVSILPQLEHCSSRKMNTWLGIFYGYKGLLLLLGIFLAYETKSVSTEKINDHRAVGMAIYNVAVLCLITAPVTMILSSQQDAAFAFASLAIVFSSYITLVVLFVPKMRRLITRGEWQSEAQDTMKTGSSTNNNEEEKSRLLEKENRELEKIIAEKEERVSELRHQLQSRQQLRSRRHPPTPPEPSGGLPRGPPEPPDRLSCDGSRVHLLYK
Sequence of Gamma-aminobutyric acid receptor subunit alpha-1/alpha-2/beta-2/gamma-2 (P14867 whole entry): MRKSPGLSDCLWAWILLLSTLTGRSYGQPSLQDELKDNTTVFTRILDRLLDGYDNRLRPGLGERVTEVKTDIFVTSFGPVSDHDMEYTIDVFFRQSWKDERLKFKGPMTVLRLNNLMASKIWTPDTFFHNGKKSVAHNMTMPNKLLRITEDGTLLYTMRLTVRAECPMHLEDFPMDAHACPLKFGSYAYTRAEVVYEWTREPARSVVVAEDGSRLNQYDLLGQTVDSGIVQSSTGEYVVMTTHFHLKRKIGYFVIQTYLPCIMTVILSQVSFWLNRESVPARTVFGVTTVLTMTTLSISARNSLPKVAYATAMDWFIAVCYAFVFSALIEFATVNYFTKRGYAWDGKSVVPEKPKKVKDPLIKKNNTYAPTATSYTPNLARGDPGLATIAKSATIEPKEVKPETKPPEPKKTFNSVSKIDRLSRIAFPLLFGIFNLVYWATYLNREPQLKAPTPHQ
Sequence of Gamma-aminobutyric acid receptor subunit alpha-1/alpha-2/beta-2/gamma-2 (P47870 whole entry): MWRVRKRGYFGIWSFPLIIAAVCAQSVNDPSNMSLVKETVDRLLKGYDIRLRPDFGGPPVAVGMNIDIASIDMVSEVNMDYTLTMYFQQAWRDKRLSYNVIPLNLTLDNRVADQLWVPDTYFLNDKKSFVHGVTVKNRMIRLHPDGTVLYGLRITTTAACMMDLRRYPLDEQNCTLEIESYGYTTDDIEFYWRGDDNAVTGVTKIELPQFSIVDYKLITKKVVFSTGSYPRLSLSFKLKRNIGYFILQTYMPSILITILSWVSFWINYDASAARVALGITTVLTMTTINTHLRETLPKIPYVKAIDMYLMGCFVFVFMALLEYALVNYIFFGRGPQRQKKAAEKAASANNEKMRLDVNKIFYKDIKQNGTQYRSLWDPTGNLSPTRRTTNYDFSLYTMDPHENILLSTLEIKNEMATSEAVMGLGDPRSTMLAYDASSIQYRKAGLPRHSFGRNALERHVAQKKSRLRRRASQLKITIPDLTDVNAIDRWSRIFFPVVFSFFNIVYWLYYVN
Sequence of Gamma-aminobutyric acid receptor subunit alpha-1/alpha-2/beta-2/gamma-2 (P18507 whole entry): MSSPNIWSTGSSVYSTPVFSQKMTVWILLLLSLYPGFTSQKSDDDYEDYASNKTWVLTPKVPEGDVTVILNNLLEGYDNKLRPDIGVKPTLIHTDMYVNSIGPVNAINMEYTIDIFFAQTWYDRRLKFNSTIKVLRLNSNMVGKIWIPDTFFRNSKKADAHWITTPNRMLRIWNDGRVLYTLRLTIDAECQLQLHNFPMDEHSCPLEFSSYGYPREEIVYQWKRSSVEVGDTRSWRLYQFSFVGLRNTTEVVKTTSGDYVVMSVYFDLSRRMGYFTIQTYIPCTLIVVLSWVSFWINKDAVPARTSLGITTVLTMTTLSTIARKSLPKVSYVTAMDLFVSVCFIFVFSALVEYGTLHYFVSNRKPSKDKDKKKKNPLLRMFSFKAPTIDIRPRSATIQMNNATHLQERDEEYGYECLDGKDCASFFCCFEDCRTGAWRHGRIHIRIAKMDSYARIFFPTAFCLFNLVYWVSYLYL
Sequence of Gamma-aminobutyric acid receptor subunit alpha-1/alpha-2/beta-2/gamma-2 (P47869 whole entry): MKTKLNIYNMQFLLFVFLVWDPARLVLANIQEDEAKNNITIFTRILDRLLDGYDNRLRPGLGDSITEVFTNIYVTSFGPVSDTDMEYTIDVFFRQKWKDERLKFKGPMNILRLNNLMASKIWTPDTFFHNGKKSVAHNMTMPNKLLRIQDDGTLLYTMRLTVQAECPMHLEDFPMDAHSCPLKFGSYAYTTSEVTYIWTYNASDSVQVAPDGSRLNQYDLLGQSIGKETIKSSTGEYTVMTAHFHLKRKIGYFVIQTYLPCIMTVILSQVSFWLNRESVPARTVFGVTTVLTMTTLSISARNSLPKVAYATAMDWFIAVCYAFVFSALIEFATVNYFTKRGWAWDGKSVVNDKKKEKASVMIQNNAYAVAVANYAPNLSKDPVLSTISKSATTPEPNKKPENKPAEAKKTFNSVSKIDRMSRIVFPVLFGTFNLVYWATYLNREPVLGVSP

| Compound | AC50 [1] [µM] | AC50 (Progesterone receptor) [µM] | AC50 (B1 bradykinin receptor) [µM] | AC50 [2] [µM] | AC50 (Androgen receptor [3]) [µM] | AC50 (Androgen receptor [4]) [µM] | AC50 (Androgen receptor [5]) [µM] | AC50 [6] [µM] |
| --- | --- | --- | --- | --- | --- | --- | --- | --- |
| CC(C)c1c(C(=O)Nc2ccccc2)c(-c2ccccc2)c(-c2ccc(F)cc2)n1CC[C@@H](O)C[C@@H](O)CC(=O)O [ATORVASTATIN] | > 30 | > 30 | > 30 | > 10 | – | – | – | – |
| CN(C)C(=O)OC1N=C(c2ccccc2)c2cc(Cl)ccc2N(C)C1=O (stereo unspecified) [CAMAZEPAM] | > 30 | > 30 | > 30 | > 10 | > 30 | – | – | – |
| [H]/N=C(/N)c1ccc(NCc2nc3cc(C(=O)N(CCC(=O)O)c4ccccn4)ccc3n2C)cc1 [DABIGATRAN] | – | – | – | – | – | > 30 | > 30 | > 30 |
| CCNC(C)Cc1cccc(C(F)(F)F)c1 (stereo unspecified) [FENFLURAMINE] | > 30 | > 30 | > 30 | > 10 | – | – | – | – |
| CCCCCN(C)CCC(O)(P(=O)(O)O)P(=O)(O)O [IBANDRONIC ACID] | > 30 | > 30 | > 30 | – | > 30 | > 30 | > 30 | – |
| NC(=O)C[S+]([O-])C(c1ccccc1)c1ccccc1 (stereo unspecified) [MODAFINIL] | > 30 | > 30 | > 30 | > 10 | – | – | – | – |
| CCCCCCC(C)(C)c1cc(O)c2c(c1)OC(C)(C)C1CCC(=O)CC21 (stereo unspecified) [NABILONE] | – | – | – | – | – | > 30 | > 30 | > 30 |
| O=C(O)CCCc1ccccc1 [PHENYLBUTANOIC ACID] | > 30 | > 30 | > 10 | > 10 | – | – | – | – |
| CC[C@]1(O)C[C@@H]2CN(CCc3c([nH]c4ccccc34)[C@@](C(=O)OC)(c3cc4c(cc3OC)N(C)[C@H]3[C@@](O)(C(N)=O)[C@H](O)[C@]5(CC)C=CCN6CC[C@]43[C@@H]65)C2)C1 [VINDESINE] | – | – | – | – | – | > 30 | > 30 | – |
| Cc1ccc(-c2nc3ccc(C)cn3c2CC(=O)N(C)C)cc1 [ZOLPIDEM] | > 30 | > 30 | > 30 | > 10 | – | – | – | – |
| TOCOFERSOLAN | – | – | – | – | – | > 30 | > 30 | – |
